According to patent publication US12312337B2, “Compounds and methods for treating cancer” (ANTIDOTE IP HOLDINGS, LLC, priority 2019, dated 2025):
pIC50, pKd: −log10 of the molar value.

Target: T1, human AhR (Homo sapiens, UniProt P35869)
T1 construct: INDIGO's Aryl Hydrocarbon Receptor (AhR) Reporter Cells include the luciferase reporter gene functionally linked to an AhR-responsive promoter
T1 sequence (P35869 11-848): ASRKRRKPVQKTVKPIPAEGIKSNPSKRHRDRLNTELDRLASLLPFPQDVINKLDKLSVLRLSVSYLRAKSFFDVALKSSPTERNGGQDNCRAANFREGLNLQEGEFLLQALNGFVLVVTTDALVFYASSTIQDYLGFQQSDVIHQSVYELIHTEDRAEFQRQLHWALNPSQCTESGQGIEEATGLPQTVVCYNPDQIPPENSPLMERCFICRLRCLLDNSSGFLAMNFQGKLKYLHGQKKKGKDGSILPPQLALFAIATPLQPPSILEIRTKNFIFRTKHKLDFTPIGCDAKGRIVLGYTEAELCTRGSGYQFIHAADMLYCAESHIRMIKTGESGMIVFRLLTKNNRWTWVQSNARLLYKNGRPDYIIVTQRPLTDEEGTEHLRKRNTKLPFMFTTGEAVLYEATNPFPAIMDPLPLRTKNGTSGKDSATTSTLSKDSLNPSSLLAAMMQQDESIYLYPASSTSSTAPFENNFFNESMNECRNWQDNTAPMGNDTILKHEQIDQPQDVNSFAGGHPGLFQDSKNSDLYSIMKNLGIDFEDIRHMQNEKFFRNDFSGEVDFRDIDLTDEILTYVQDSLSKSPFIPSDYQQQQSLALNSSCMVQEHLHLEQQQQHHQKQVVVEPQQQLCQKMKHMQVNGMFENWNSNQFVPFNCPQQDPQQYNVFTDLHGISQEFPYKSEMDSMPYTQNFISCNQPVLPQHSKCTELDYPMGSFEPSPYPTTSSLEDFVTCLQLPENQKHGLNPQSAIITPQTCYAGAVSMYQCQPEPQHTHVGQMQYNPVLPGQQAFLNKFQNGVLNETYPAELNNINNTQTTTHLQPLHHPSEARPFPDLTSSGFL
Experiment: INDIGO AhR Reporter Assay (luciferase reporter cells, antagonist mode)
Assay type: cell-based
Conditions: antagonist mode with 50 nM of VAF347 (AhR agonist); 22-24 hours incubation; luciferase RLU
Excerpt: INDIGO's Aryl Hydrocarbon Receptor (AhR) Reporter Cells include the luciferase reporter gene functionally linked to an AhR-responsive promoter. Thus, quantifying changes in luciferase expression in the treated reporter cells provides a sensitive surrogate measure of the changes in AhR activity. The principle application of this reporter assay is in the screening of test samples to quantify any functional activity, either agonist or antagonist, that they may exert against human AhR. Reporter Cells incorporate the cDNA encoding beetle luciferase, a 62 kD protein originating from the North American firefly (Photinus pyralis). Luciferase catalyzes the mono-oxidation of D-luciferin in a Mg^2+-dependent reaction that consumes 02 and ATP as co-substrates, and yields as products oxyluciferin, AMP, PPi, CO2, and photon emission. Luminescence intensity of the reaction is quantified using a luminometer, and is reported in terms of Relative Light Units (RLU's). In brief, 200 μl of Reporter Cells was dispensed into wells of the assay plate and pre-incubated for 4-6 hours. Following the pre-incubation period, culture media were discarded and 200 µl/well of the prepared 1×-concentration treatment media were added. Following 22-24 hours of incubation, treatment media were discarded and Luciferase Detection Reagent was added. The intensity of light emission (in units of “Relative Light Units” (RLU)) from each assay well was quantified using a plate-reading luminometer. The assay was run as a competitive binding assay in the antagonist mode with 50 nM of VAF347, a known AhR agonist.
In Table 4, IC50 values are reported as A, B, C, or D. A represents an IC50 value of less than 100 nM. B represents an IC50 value of equal or greater than 100 nM and less than 500 nM. C represents an IC50 value of equal or greater than 500 nM and less than 1 μM. D represents an IC50 value of equal or greater than 1 μM.

Row | pIC50 | SMILES
1 | > 7.00 | Cn1nc(C(F)(F)F)cc1NC(=O)c1ccc2cc(-c3ncc(F)cc3F)cnc2c1 [Compound 124, 3-(3,5-difluoropyridin-2-yl)-N-[l-methyl-3-(trifluoromethyl)-1H-pyrazol-5-yl]quinoline-7-carboxamide]
2 | < 6.00 | Cn1nc(C(F)(F)F)cc1NC(=O)c1ccc2cc(-c3cccc(Cl)c3)cnc2c1 [Compound 65, 3-(3-chlorophenyl)-N-[1-methyl-3-(trifluoromethyl)-1H-pyrazol-5-yl]quinoline-7-carboxamide]
3 | 6.30 to 7.00 | Cn1nc(C(F)(F)F)cc1NC(=O)c1ccc2cc(-c3ccccc3Cl)cnc2c1 [Compound 66, 3-(2-Chlorophenyl)-N-[1-methyl-3-(trifluoromethyl)-1H-pyrazol-5-yl]quinoline-7-carboxamide]
4 | 6.00 to 6.30 | Cn1cc(-c2ccccc2)nc1NC(=O)c1cc2ncccc2cc1Cl [Compound 90, 6-chloro-N-(1-methyl-4-phenyl-1H-imidazol-2-yl)quinoline-7-carboxamide]
5 | < 6.00 | Cn1nc(C(F)(F)F)cc1NC(=O)c1ccc2cc(-c3cccc(C(F)(F)F)c3)cnc2c1 [Compound 55, N-[1-Methyl-3-(trifluoromethyl)-1H-pyrazol-5-yl]-3-[3-(trifluoromethyl)phenyl]quinoline-7-carboxamide]
6 | 6.00 to 6.30 | CN(C)S(=O)(=O)c1cc(NC(=O)c2cc3cc(-c4ccncc4F)cnc3s2)ccc1Cl [Compound 153, N-[4-chloro-3-(N,N-dimethylsulfamoyl)phenyl]-5-(3-fluoropyridin-4-yl)-thieno[2,3-b]pyridine-2-carboxamide]
7 | > 7.00 | Cn1nc(C(F)(F)F)cc1NC(=O)c1ccc2cc(-c3ccc(F)cn3)cnc2c1 [Compound 101, 3-(5-fluoropyridin-2-yl)-N-(1-methyl-3-(trifluoromethyl)-1H-pyrazol-5-yl)quinoline-7-carboxamide]
8 | 6.30 to 7.00 | Cn1nc(-c2cccc(C(F)(F)F)c2)cc1NC(=O)c1cc2ncccc2cc1Cl [Compound 48, 6-Chloro-N-{1-methyl-3-[3-(trifluoromethyl)phenyl]-1H-pyrazol-5-yl}quinoline-7-carboxamide]
9 | > 7.00 | Cc1ccccc1-c1cc(NC(=O)c2ccc3cc(-c4ccc(F)cc4F)cnc3c2)n(C)n1 [Compound 96, 3-(2,4-difluorophenyl)-N-(1-methyl-3-(o-tolyl)-1H-pyrazol-5-yl)quinoline-7-carboxamide]

The next lines start with the compound.

Row | SMILES | pIC50
10 | Cn1nc(C(F)(F)F)cc1NC(=O)c1ccc2cc(-c3ncc(F)cn3)cnc2c1 [Compound 123, 3-(5-fluoropyrimidin-2-yl)-N-[1-methyl-3-(trifluoromethyl)-1H-pyrazol-5-yl]quinoline-7-carboxamide] | > 7.00
11 | Cn1nc(C(F)(F)F)cc1NC(=O)c1ccc2cc(-c3ccccc3F)cnc2c1 [Compound 54, 3-(2-Fluorophenyl)-N-[1-methyl-3-(trifluoromethyl)-1H-pyrazol-5-yl]quinoline-7-carboxamide] | > 7.00
12 | CCN(CC)S(=O)(=O)c1cc(NC(=O)c2cc3ncccc3cc2Cl)ccc1Cl [Compound 34, 6-Chloro-N-(4-chloro-3-(N,N-diethylsulfamoyl)phenyl)quinoline-7-carboxamide] | 6.30 to 7.00
13 | Cn1nc(C(C)(C)C)cc1NC(=O)c1cc2ncccc2cc1Cl [Compound 19, N-(3-tert-Butyl-1-methyl-1H-pyrazol-5-yl)-6-chloroquinoline-7-carboxamide] | 6.30 to 7.00
14 | Cn1nc(C(F)(F)F)cc1NC(=O)c1ccc2cc(-c3ccccc3)cnc2c1 [Compound 40, N-[1-Methyl-3-(trifluoromethyl)-1H-pyrazol-5-yl]-3-phenylquinoline-7-carboxamide] | > 7.00
15 | Cn1nc(-c2ccccc2F)cc1NC(=O)c1cc2ncccc2cc1Cl [Compound 29, 6-Chloro-N-[3-(2-fluorophenyl)-1-methyl-1H-pyrazol-5-yl]quinoline-7-carboxamide] | 6.30 to 7.00
16 | CCN(CC)S(=O)(=O)c1cc(NC(=O)c2cc3cc(-c4ccncc4F)cnc3s2)ccc1Cl [Compound 145, N-[4-chloro-3-(N,N-diethylsulfamoyl)phenyl]-5-(3-fluoropyridin-4-yl)-thieno[2,3-b]pyridine-2-carboxamide] | 6.30 to 7.00
17 | Cn1nc(-c2ccccc2)cc1NC(=O)c1ccc2cc(-c3ccc(F)cn3)cnc2c1 [Compound 128, 3-(5-fluoropyridin-2-yl)-N-(1-methyl-3-phenyl-1H-pyrazol-5-yl) quinoline-7-carboxamide] | > 7.00
18 | Cc1ccccc1-c1cnc2cc(C(=O)Nc3cc(C(F)(F)F)nn3C)ccc2c1 [Compound 52, N-[1-methyl-3-(trifluoromethyl)-1H-pyrazol-5-yl]-3-(2-methylphenyl) quinoline-7-carboxamide] | 6.30 to 7.00
19 | Cn1nc(C(F)(F)F)cc1NC(=O)c1ccc2cc(-c3ccncc3)cnc2c1 [Compound 78, N-[1-methyl-3-(trifluoromethyl)-1-pyrazol-yl]-3-(pyridin-4-yl)quinoline-7-carboxamide] | 6.30 to 7.00
20 | CCN1CCN(c2ccc(NC(=O)c3ccc4cc(-c5ccccc5)cnc4c3)cc2F)CC1 [Compound 64, N-[4-(4-ethylpiperazin-1-yl)-3-fluorophenyl]-3-phenylquinoline-7-carboxamide] | < 6.00
21 | Cc1ccccc1-c1cc(NC(=O)c2ccc3cc(-c4cccs4)cnc3c2)n(C)n1 [Compound 97, N-(1-methyl-3-(o-tolyl)-1H-pyrazol-5-yl)-3-(thiophen-2-yl)quinoline-7-carboxamide] | > 7.00
22 | Cc1ccccc1-c1cc(NC(=O)c2ccc3cc(-c4ccc(F)cc4)cnc3c2)n(C)n1 [Compound 95, 3-(4-fluorophenyl)-N-(1-methyl-3-(o-tolyl)-1H-pyrazol-5-yl)quinoline-7-carboxamide] | > 7.00
23 | Cn1nc(C(F)(F)F)cc1NC(=O)c1ccc2cc(-c3ccc(F)cc3)cnc2c1 [Compound 61, 3-(4-Fluorophenyl)-N-[1-methyl-3-(trifluoromethyl)-1H-pyrazol-5-yl]quinoline-7-carboxamide] | > 7.00
24 | Cc1cc(F)ccc1-c1cc(NC(=O)c2cc3ncccc3cc2Cl)n(C)n1 [Compound 57, 6-Chloro-N-(3-(4-fluoro-2-methylphenyl)-1-methyl-1H-pyrazol-5-yl) quinoline-7-carboxamide] | 6.30 to 7.00
25 | Cc1ccccc1-c1cc(NC(=O)c2cc3ncccc3cc2Cl)n(C)n1 [Compound 31, 6-Chloro-N-[1-methyl-3-(2-methylphenyl)-1H-pyrazol-5-yl]quinoline-7-carboxamide] | > 7.00
26 | Cc1ccc(Cl)cc1-c1cc(NC(=O)c2cc3ncccc3cc2Cl)n(C)n1 [Compound 51, 6-Chloro-N-[3-(5-chloro-2-methylphenyl)-1-methyl-1H-pyrazol-5-yl]quinoline-7-carboxamide] | > 7.00

Tested on: AhR
Experiment: not given
Conditions: binding to the AhR; acts as an agonist; read-out: apparent Kd; cited from earlier work

Row | SMILES | pKd
27 | Nc1ccccc1C(=O)CC(N)C(=O)O (stereo not drawn) [Kynurenine] | ~5.40
